Reference: ChEMBL document CHEMBL1130753, “Solid phase synthesis of a biased mini tetrapeptoid-library for the discovery of monodentate ITAM mimics as ZAP-70 inhibitors” (Bioorg Med Chem Lett, 1998)
Where a SMILES comes first, the peptide text is derived from it. [ ]: non-standard residue; d: D form. The star is where a group is joined. Gly(N-Bn(4-CH2PO3H2)) = O=C(O)CNCc1ccc(CP(=O)(O)O)cc1; N(3-phenylpropyl)Gly = O=C(O)CNCCCc1ccccc1; Hexanoyl = CCCCCC(=O)*; Nleu = CC(C)CNCC(=O)O; NEtG = CCNCC(=O)O

Tests used:
[1] = target: Tyrosine-protein kinase Lck (Homo sapiens) (UniProt P06239); assay: Compound was tested for its antagonistic activity at 100 uM concentration against SH2 domain of LCK protein.; type: functional
Sequence of Tyrosine-protein kinase Lck (Homo sapiens) (P06239 2-509 limits assumed): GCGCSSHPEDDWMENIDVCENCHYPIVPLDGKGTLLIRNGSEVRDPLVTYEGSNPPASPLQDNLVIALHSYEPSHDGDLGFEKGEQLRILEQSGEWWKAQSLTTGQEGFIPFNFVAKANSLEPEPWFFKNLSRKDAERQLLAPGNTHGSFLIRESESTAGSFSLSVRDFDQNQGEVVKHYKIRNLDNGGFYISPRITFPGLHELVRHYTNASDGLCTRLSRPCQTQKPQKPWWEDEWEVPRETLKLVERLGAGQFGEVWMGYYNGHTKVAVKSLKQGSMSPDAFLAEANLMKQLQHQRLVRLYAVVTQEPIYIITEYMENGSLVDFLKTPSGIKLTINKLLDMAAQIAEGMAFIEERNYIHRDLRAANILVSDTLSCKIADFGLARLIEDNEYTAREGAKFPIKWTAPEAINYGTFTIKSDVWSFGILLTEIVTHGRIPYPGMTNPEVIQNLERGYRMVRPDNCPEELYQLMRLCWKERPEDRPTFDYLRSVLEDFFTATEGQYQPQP

[2] = target: Growth factor receptor-bound protein 2 (Homo sapiens) (UniProt P62993); assay: Antagonistic activity at 100 uM concentration against SH-2 domain of growth factor receptor binding protein (Grb2).
[3] = target: T1, Tyrosine-protein kinase ZAP-70 (Homo sapiens, UniProt P43403); assay: Inhibition of binding to human ZAP-70 SH2 domain
T1 sequence (P43403 whole entry): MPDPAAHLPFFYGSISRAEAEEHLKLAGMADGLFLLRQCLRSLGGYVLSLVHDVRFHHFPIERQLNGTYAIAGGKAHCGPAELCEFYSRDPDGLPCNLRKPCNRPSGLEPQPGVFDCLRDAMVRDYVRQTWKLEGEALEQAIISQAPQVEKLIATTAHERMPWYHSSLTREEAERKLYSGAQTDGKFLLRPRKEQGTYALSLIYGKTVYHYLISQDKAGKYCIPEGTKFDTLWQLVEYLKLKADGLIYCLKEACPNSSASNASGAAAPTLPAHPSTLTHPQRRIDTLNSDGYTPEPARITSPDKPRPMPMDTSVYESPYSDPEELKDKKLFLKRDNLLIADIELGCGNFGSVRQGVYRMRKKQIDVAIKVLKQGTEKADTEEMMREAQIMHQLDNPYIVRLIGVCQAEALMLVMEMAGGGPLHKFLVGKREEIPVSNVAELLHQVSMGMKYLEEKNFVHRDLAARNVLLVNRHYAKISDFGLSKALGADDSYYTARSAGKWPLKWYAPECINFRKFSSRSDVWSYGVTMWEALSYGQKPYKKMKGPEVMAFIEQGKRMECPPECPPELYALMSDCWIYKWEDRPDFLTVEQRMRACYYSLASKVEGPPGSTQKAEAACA

inhibition [1] | inhibition [2] | IC50 [3] | Compound
1% | 3% | – | CCCCCC(=O)N(CC(=O)N(CC(=O)N(CCCc1ccccc1)CC(=O)N(CC(N)=O)CC(C)C)CC(C)C)Cc1ccc(CP(=O)(O)O)cc1 (Hexanoyl-[Gly(N-Bn(4-CH2PO3H2))][Nleu][N(3-phenylpropyl)Gly][Nleu]-NH2)
16% | 0% | – | CCCCCC(=O)N(CC(=O)N(CCCc1ccccc1)CC(=O)N(CC(=O)N(CC(N)=O)CC(C)C)CC(C)C)Cc1ccc(CP(=O)(O)O)cc1 (Hexanoyl-[Gly(N-Bn(4-CH2PO3H2))][N(3-phenylpropyl)Gly][Nleu][Nleu]-NH2)
1% | 4% | – | CCCCCC(=O)N(CC(=O)N(CC(=O)N(CC(=O)N(CC)CC(N)=O)CC(C)C)CC(C)C)Cc1ccc(CP(=O)(O)O)cc1 (Hexanoyl-[Gly(N-Bn(4-CH2PO3H2))][Nleu][Nleu][NEtG]-NH2)
4% | 6% | – | CCCCCC(=O)N(CC(=O)N(CC)CC(=O)N(CC)CC(=O)N(CC)CC(N)=O)Cc1ccc(CP(=O)(O)O)cc1 (Hexanoyl-[Gly(N-Bn(4-CH2PO3H2))][NEtG][NEtG][NEtG]-NH2)
1% | 4% | – | CCCCCC(=O)N(CC(=O)N(CC)CC(=O)N(CC)CC(=O)N(CCCc1ccccc1)CC(N)=O)Cc1ccc(CP(=O)(O)O)cc1 (Hexanoyl-[Gly(N-Bn(4-CH2PO3H2))][NEtG][NEtG][N(3-phenylpropyl)Gly]-NH2)
0% | 2% | – | CCCCCC(=O)N(CC(=O)N(CC)CC(=O)N(CCCc1ccccc1)CC(=O)N(CCCc1ccccc1)CC(N)=O)Cc1ccc(CP(=O)(O)O)cc1 (Hexanoyl-[Gly(N-Bn(4-CH2PO3H2))][NEtG][N(3-phenylpropyl)Gly][N(3-phenylpropyl)Gly]-NH2)
15% | 2% | – | CCCCCC(=O)N(CC(=O)N(CC)CC(=O)N(CC(=O)N(CCCc1ccccc1)CC(N)=O)CC(C)C)Cc1ccc(CP(=O)(O)O)cc1 (Hexanoyl-[Gly(N-Bn(4-CH2PO3H2))][NEtG][Nleu][N(3-phenylpropyl)Gly]-NH2)
7% | 8% | – | CCCCCC(=O)N(CC(=O)N(CC)CC(=O)N(CCCc1ccccc1)CC(=O)N(CC)CC(N)=O)Cc1ccc(CP(=O)(O)O)cc1 (Hexanoyl-[Gly(N-Bn(4-CH2PO3H2))][NEtG][N(3-phenylpropyl)Gly][NEtG]-NH2)
6% | 3% | – | CCCCCC(=O)N(CC(=O)N(CCCc1ccccc1)CC(=O)N(CCCc1ccccc1)CC(=O)N(CC(N)=O)CC(C)C)Cc1ccc(CP(=O)(O)O)cc1 (Hexanoyl-[Gly(N-Bn(4-CH2PO3H2))][N(3-phenylpropyl)Gly][N(3-phenylpropyl)Gly][Nleu]-NH2)
5% | 6% | – | CCCCCC(=O)N(CC(=O)N(CCCc1ccccc1)CC(=O)N(CC(=O)N(CC)CC(N)=O)CC(C)C)Cc1ccc(CP(=O)(O)O)cc1 (Hexanoyl-[Gly(N-Bn(4-CH2PO3H2))][N(3-phenylpropyl)Gly][Nleu][NEtG]-NH2)
4% | 5% | – | CCCCCC(=O)N(CC(=O)N(CCCc1ccccc1)CC(=O)N(CC)CC(=O)N(CC)CC(N)=O)Cc1ccc(CP(=O)(O)O)cc1 (Hexanoyl-[Gly(N-Bn(4-CH2PO3H2))][N(3-phenylpropyl)Gly][NEtG][NEtG]-NH2)
9% | 30% | – | CCCCCC(=O)N(CC(=O)N(CC(=O)N(CC)CC(=O)N(CC(N)=O)CC(C)C)CC(C)C)Cc1ccc(CP(=O)(O)O)cc1 (Hexanoyl-[Gly(N-Bn(4-CH2PO3H2))][Nleu][NEtG][Nleu]-NH2)
6% | 8% | – | CCCCCC(=O)N(CC(=O)N(CC)CC(=O)N(CC(=O)N(CC(N)=O)CC(C)C)CC(C)C)Cc1ccc(CP(=O)(O)O)cc1 (Hexanoyl-[Gly(N-Bn(4-CH2PO3H2))][NEtG][Nleu][Nleu]-NH2)
3% | 6% | – | CCCCCC(=O)N(CC(=O)N(CC(=O)N(CC(=O)N(CC(N)=O)CC(C)C)CC(C)C)CC(C)C)Cc1ccc(CP(=O)(O)O)cc1 (Hexanoyl-[Gly(N-Bn(4-CH2PO3H2))][Nleu][Nleu][Nleu]-NH2)
4% | 4% | – | CCCCCC(=O)N(CC(=O)N(CCCc1ccccc1)CC(=O)N(CCCc1ccccc1)CC(=O)N(CC)CC(N)=O)Cc1ccc(CP(=O)(O)O)cc1 (Hexanoyl-[Gly(N-Bn(4-CH2PO3H2))][N(3-phenylpropyl)Gly][N(3-phenylpropyl)Gly][NEtG]-NH2)
2% | 2% | – | CCCCCC(=O)N(CC(=O)N(CC)CC(=O)N(CC)CC(=O)N(CC(N)=O)CC(C)C)Cc1ccc(CP(=O)(O)O)cc1 (Hexanoyl-[Gly(N-Bn(4-CH2PO3H2))][NEtG][NEtG][Nleu]-NH2)
32% | 32% | > 100 µM | CCCCCC(=O)N(CC(=O)N(CCCc1ccccc1)CC(=O)N(CC(=O)N(CCCc1ccccc1)CC(N)=O)CC(C)C)Cc1ccc(CP(=O)(O)O)cc1 (Hexanoyl-[Gly(N-Bn(4-CH2PO3H2))][N(3-phenylpropyl)Gly][Nleu][N(3-phenylpropyl)Gly]-NH2)
4% | 5% | – | CCCCCC(=O)N(CC(=O)N(CC(=O)N(CCCc1ccccc1)CC(=O)N(CC)CC(N)=O)CC(C)C)Cc1ccc(CP(=O)(O)O)cc1 (Hexanoyl-[Gly(N-Bn(4-CH2PO3H2))][Nleu][N(3-phenylpropyl)Gly][NEtG]-NH2)
61% | 15% | – | CCCCCC(=O)N(CC(=O)N(CC(=O)N(CC)CC(=O)N(CC)CC(N)=O)CC(C)C)Cc1ccc(CP(=O)(O)O)cc1 (Hexanoyl-[Gly(N-Bn(4-CH2PO3H2))][Nleu][NEtG][NEtG]-NH2)
0% | 2% | – | CCCCCC(=O)N(CC(=O)N(CC)CC(=O)N(CC(=O)N(CC)CC(N)=O)CC(C)C)Cc1ccc(CP(=O)(O)O)cc1 (Hexanoyl-[Gly(N-Bn(4-CH2PO3H2))][NEtG][Nleu][NEtG]-NH2)
4% | 20% | > 100 µM | CCCCCC(=O)N(CC(=O)N(CCCc1ccccc1)CC(=O)N(CC)CC(=O)N(CCCc1ccccc1)CC(N)=O)Cc1ccc(CP(=O)(O)O)cc1 (Hexanoyl-[Gly(N-Bn(4-CH2PO3H2))][N(3-phenylpropyl)Gly][NEtG][N(3-phenylpropyl)Gly]-NH2)
3% | 4% | – | CCCCCC(=O)N(CC(=O)N(CC)CC(=O)N(CCCc1ccccc1)CC(=O)N(CC(N)=O)CC(C)C)Cc1ccc(CP(=O)(O)O)cc1 (Hexanoyl-[Gly(N-Bn(4-CH2PO3H2))][NEtG][N(3-phenylpropyl)Gly][Nleu]-NH2)
10% | 2% | – | CCCCCC(=O)N(CC(=O)N(CC(=O)N(CC)CC(=O)N(CCCc1ccccc1)CC(N)=O)CC(C)C)Cc1ccc(CP(=O)(O)O)cc1 (Hexanoyl-[Gly(N-Bn(4-CH2PO3H2))][Nleu][NEtG][N(3-phenylpropyl)Gly]-NH2)
3% | 0% | – | CCCCCC(=O)N(CC(=O)N(CC(=O)N(CCCc1ccccc1)CC(=O)N(CCCc1ccccc1)CC(N)=O)CC(C)C)Cc1ccc(CP(=O)(O)O)cc1 (Hexanoyl-[Gly(N-Bn(4-CH2PO3H2))][Nleu][N(3-phenylpropyl)Gly][N(3-phenylpropyl)Gly]-NH2)
4% | 5% | – | CCCCCC(=O)N(CC(=O)N(CCCc1ccccc1)CC(=O)N(CCCc1ccccc1)CC(=O)N(CCCc1ccccc1)CC(N)=O)Cc1ccc(CP(=O)(O)O)cc1 (Hexanoyl-[Gly(N-Bn(4-CH2PO3H2))][N(3-phenylpropyl)Gly][N(3-phenylpropyl)Gly][N(3-phenylpropyl)Gly]-NH2)
7% | 3% | – | CCCCCC(=O)N(CC(=O)N(CCCc1ccccc1)CC(=O)N(CC)CC(=O)N(CC(N)=O)CC(C)C)Cc1ccc(CP(=O)(O)O)cc1 (Hexanoyl-[Gly(N-Bn(4-CH2PO3H2))][N(3-phenylpropyl)Gly][NEtG][Nleu]-NH2)
1% | 5% | – | CCCCCC(=O)N(CC(=O)N(CC(=O)N(CC(=O)N(CCCc1ccccc1)CC(N)=O)CC(C)C)CC(C)C)Cc1ccc(CP(=O)(O)O)cc1 (Hexanoyl-[Gly(N-Bn(4-CH2PO3H2))][Nleu][Nleu][N(3-phenylpropyl)Gly]-NH2)
